Holding throughout (assay type): biochemical
Assay [1] addresses T1, recombinant soluble tissue factor and recombinant human factor VIIa (TF-VIIa) (Homo sapiens, UniProt P08709).
T1 construct: conversion of coagulation factor VII to VIIa by factor Xa; purchased American Diagnostica, Greenwich CT; host or cells: soluble TF made in house in E. coli
As to the kind of experiment: TF-VIIa assay (chromogenic substrate hydrolysis). The note with it: reported only as less than or greater than 0.1 uM. The method, boiled down: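 Chromogenic read at OD405, compared with control for percent inhibition. Substrate N-methylsulfonyl-D-phe-gly-arg-p-nitroaniline at 0.4 mM is cleaved by recombinant human VIIa (2 nM) complexed with soluble TF (100 nM). Buffer: pH 8.0 Tris-HCl 50 mM, CaCl2 5 mM, NaCl 100 mM, BSA 0.1%.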

For the next assay, the target named is T2, Human factor Xa (Homo sapiens, UniProt P00742).
T2 construct: purchased Enzyme Research Laboratories, South Bend Ind
In words: Xa assay (chromogenic substrate S-2765). The note with it: reported only as less than or greater than 30 uM; read-out: Factor Xa (II) IC50. A digest of the protocol: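 Chromogenic readout: S-2765 hydrolysis (0.15 mM) by 0.3 nM human FXa was monitored at 405 nm after 60 min at room temperature, with a time-zero background read. Buffer: 50 mM Tris-HCl, pH 8.0, 100 mM NaCl, 0.1% BSA. Inhibition is relative to buffer-only controls.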

Another assay deals with T3, Human thrombin (Homo sapiens, UniProt P00734).
T3 construct: converts prothrombin (II) to thrombin (IIa); purchased Calbiochem, La Jolla, Calif
In words: Thrombin assay (chromogenic substrate). The settings on record: reported only as less than or greater than 30 uM; read-out: Thrombin (II) IC50. The method, boiled down: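 Percent inhibition derived by comparing OD405 nm of compound-treated and control samples. Thrombin cleavage of a p-nitroanilide chromogenic substrate provides the signal.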

Assay [2] has as its system Normal human pooled plasma. As to the kind of experiment: Prothrombin time (PT) clotting assay. The note with it: concentration at which prothrombin time is prolonged by 2x normal, reported as less than or greater than 50 uM. A digest of the protocol:
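Normal human pooled plasma incubated with 100 uM compound or saline, then thromboplastin (human tissue factor) added and clotting time recorded in a coagulation machine. Compounds exceeding 3× normal PT (11.0 s) are titrated to find the concentration doubling PT.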

SMILES strings stand for the structures. pIC50: −log10 of the molar value.

In general, pIC50 refers to −log10 of the IC50, conventionally taken in molar units.

T2 sequence (P00742 235-488 limits assumed): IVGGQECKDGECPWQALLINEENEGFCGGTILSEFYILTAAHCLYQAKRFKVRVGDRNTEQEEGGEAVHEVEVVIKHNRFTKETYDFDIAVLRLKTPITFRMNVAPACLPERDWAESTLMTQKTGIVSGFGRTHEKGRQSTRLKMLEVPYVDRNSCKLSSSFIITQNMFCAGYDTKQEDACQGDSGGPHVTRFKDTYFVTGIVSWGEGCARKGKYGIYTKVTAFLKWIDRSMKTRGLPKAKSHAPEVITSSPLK
T2 sequence (P00742 41-179 limits assumed): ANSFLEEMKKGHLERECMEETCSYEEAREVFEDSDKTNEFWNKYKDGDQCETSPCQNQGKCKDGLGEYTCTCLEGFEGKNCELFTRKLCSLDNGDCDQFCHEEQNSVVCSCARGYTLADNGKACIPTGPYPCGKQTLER
T1 sequence (P08709 213-466 limits assumed): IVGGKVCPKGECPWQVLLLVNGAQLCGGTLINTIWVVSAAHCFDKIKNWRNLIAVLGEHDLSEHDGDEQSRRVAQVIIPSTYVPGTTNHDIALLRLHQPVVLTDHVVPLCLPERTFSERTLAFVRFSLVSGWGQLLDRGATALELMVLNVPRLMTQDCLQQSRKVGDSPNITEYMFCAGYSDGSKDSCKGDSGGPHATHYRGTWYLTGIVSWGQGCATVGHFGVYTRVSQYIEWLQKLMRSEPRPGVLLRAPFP
T1 sequence (P08709 61-212 limits assumed): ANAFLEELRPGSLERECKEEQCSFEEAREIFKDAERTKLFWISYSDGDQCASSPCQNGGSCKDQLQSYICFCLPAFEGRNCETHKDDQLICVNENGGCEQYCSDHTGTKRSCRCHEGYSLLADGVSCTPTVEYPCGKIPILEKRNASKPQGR
T1 sequence (P13726 33-251 partner limits assumed): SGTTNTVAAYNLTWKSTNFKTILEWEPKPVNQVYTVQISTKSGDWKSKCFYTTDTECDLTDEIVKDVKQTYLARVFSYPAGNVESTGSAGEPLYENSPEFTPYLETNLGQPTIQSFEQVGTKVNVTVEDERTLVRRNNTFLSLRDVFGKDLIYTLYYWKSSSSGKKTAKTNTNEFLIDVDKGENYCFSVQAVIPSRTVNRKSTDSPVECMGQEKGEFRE

Consider `CC(C)Nc1ncc(-c2cc(N)cc(NS(=O)(=O)CCc3ccccc3)c2)n(CC(=O)NCc2ccc(C(=N)N)cc2)c1=O` [Example 95], for which the pIC50 was above 7.00 in assay [1], below 4.52 at Human factor Xa and below 4.52 at Human thrombin. Moreover, the “PT (Prothrombin time) 2xPT” value in assay [2] was below 50.0 µM.

Turning to `CC(C)Nc1ncc(-c2cc(N)cc(NS(=O)(=O)c3ccccc3)c2)n(CC(=O)NCc2ccc(C(=N)N)cc2)c1=O` [Example 96], the values for the pIC50 (in assay [1]; at Human factor Xa; on Human thrombin) were above 7.00, below 4.52 and below 4.52, respectively. In addition, the “PT (Prothrombin time) 2xPT” value in assay [2] is below 50.0 µM.

With `CC(C)Nc1ncc(-c2cc(N)cc(NCc3ccccc3)c2)n(CC(=O)NCc2ccc(C(=N)N)cc2)c1=O` [Example 98], the figures for the pIC50 (in assay [1]; on Human factor Xa; on Human thrombin) were above 7.00, below 4.52 and below 4.52, respectively. For the same compound, the “PT (Prothrombin time) 2xPT” value in assay [2] was below 50.0 µM.

Consider `CC(C)Nc1ncc(-c2cc(N)cc(NC(=O)Cc3ccccc3)c2)n(CC(=O)NCc2ccc(C(=N)N)cc2)c1=O` [Example 99], for which the pIC50 is above 7.00 in assay [1], below 4.52 on Human factor Xa and below 4.52 at Human thrombin. Further, in assay [2], the “PT (Prothrombin time) 2xPT” value was below 50.0 µM.

Regarding `CC(C)Nc1ncc(-c2cc(N)cc(NC(=O)C3CCCC3)c2)n(CC(=O)NCc2ccc(C(=N)N)cc2)c1=O` [Example 100], the figures for the pIC50 (in assay [1]; on Human factor Xa; on Human thrombin) were above 7.00, below 4.52 and above 4.52, respectively. The “PT (Prothrombin time) 2xPT” value in assay [2] was below 50.0 µM.

With `CC(C)Nc1ncc(-c2cc(N)cc(NCCC(C)c3ccccc3)c2)n(CC(=O)NCc2ccc(C(=N)N)cc2)c1=O` (stereo not shown) [Example 101], the pIC50 was above 7.00 in assay [1], below 4.52 on Human factor Xa and above 4.52 at Human thrombin. In addition, the “PT (Prothrombin time) 2xPT” value in assay [2] is below 50.0 µM.

Consider `CC(C)CCNc1cc(N)cc(-c2cnc(NC(C)C)c(=O)n2CC(=O)NCc2ccc(C(=N)N)cc2)c1` [Example 102], for which the pIC50 in assay [1] was above 7.00; at Human factor Xa, below 4.52; on Human thrombin it was above 4.52. Also, the “PT (Prothrombin time) 2xPT” value in assay [2] was below 50.0 µM.

Turning to `CC(C)Nc1ncc(-c2cc(N)cc(NCc3ccsc3)c2)n(CC(=O)NCc2ccc(C(=N)N)cc2)c1=O` [Example 103], the pIC50 in assay [1] is above 7.00; at Human factor Xa, below 4.52; at Human thrombin, below 4.52. For the same compound, in assay [2], the “PT (Prothrombin time) 2xPT” value was below 50.0 µM.

For `CCCC(C)C(=O)Nc1cc(N)cc(-c2cnc(NC(C)C)c(=O)n2CC(=O)NCc2ccc(C(=N)N)cc2)c1` (stereo not shown) [Example 104], the values for the pIC50 (in assay [1]; on Human factor Xa; on Human thrombin) were above 7.00, below 4.52 and above 4.52, respectively. In assay [2], the “PT (Prothrombin time) 2xPT” value is below 50.0 µM.

On to `COc1cccc(CC(=O)Nc2cc(N)cc(-c3cnc(NC(C)C)c(=O)n3CC(=O)NCc3ccc(C(=N)N)cc3)c2)c1` [Example 105], for which the pIC50 is above 7.00 in assay [1], below 4.52 on Human factor Xa and below 4.52 on Human thrombin. In assay [2], the “PT (Prothrombin time) 2xPT” value was below 50.0 µM.

For `CC(C)Nc1ncc(-c2cc(N)cc(NC(=O)CCc3ccccc3)c2)n(CC(=O)NCc2ccc(C(=N)N)cc2)c1=O` [Example 106], the pIC50 in assay [1] was above 7.00; on Human factor Xa it was below 4.52; at Human thrombin, below 4.52. Moreover, the “PT (Prothrombin time) 2xPT” value in assay [2] is below 50.0 µM.

Take `CC(C)Nc1ncc(-c2cc(N)cc(NC(=O)CCC3CCCC3)c2)n(CC(=O)NCc2ccc(C(=N)N)cc2)c1=O` [Example 107]: the pIC50 in assay [1] is above 7.00; at Human factor Xa it was below 4.52; on Human thrombin, below 4.52. Further, the “PT (Prothrombin time) 2xPT” value in assay [2] is below 50.0 µM.

Take `CCCc1ccc(C(=O)Nc2cc(N)cc(-c3cnc(NC(C)C)c(=O)n3CC(=O)NCc3ccc(C(=N)N)cc3)c2)cc1` [Example 108]: the pIC50 in assay [1] is above 7.00; on Human factor Xa, below 4.52; at Human thrombin, above 4.52. Also, the “PT (Prothrombin time) 2xPT” value in assay [2] was below 50.0 µM.

The values are drawn from patent US20040106626A1, “6-Membered unsaturated heterocyclic compounds useful for selective inhibition of the coagulation cascade” (Pharmacia Corporation, priority 2001, published 2004).
